pIC50: −log10 of the molar value. Where a name gives a salt, the structure may show the parent alone.
Target: PI3Kδ (p110δ/p85α) (Homo sapiens (Human), UniProt O00329)
Experiment: PI3Kδ Scintillation Proximity Assay (Assay A3)
Format: biochemical
Details: column b, Assay A3 (SPA), 20 μM ATP
Source text: [γ-^33P]ATP (10 mCi/mL) was purchased from Perkin-Elmer (Waltham, Mass.). Lipid kinase substrate, D-myo-Phosphatidylinositol 4,5-bisphosphate (PtdIns(4,5)P2)D (+)-sn-1,2-di-O-octanoylglyceryl, 3-O-phospho linked (PIP2), CAS 204858-53-7, was purchased from Echelon Biosciences (Salt Lake City, Utah). PI3Kδ (p110δ/p85α) was purchased from Millipore (Bedford, Mass.). ATP, MgCl2, DTT, EDTA, MOPS and CHAPS were purchased from Sigma-Aldrich (St. Louis, Mo.). Wheat Germ Agglutinin (WGA) YSi SPA Scintillation Beads was purchased from GE healthcare life sciences (Piscataway, N.J.).
The kinase reaction was conducted in polystyrene 384-well matrix white plate from Thermo Fisher Scientific in a final volume of 25 μL. Inhibitors were first diluted serially in DMSO and added to the plate wells before the addition of other reaction components. The final concentration of DMSO in the assay was 0.5%. The PI3K assays were carried out at room temperature in 20 mM MOPS, pH 6.7, 10 mM MgCl2, 5 mM DTT and CHAPS 0.03%. Reactions were initiated by the addition of ATP, the final reaction mixture consisted of 20 μM PIP2, 20 μM ATP, 0.2 μCi [γ-^33P] ATP, 4 nM PI3Kδ. Reactions were incubated for 210 min and terminated by the addition of 40 μL SPA beads suspended in quench buffer: 150 mM potassium phosphate pH 8.0, 20% glycerol. 25 mM EDTA, 400 μM ATP. The final concentration of SPA beads was 1.0 mg/mL. After the plate sealing, plates were shaken overnight at room temperature and centrifuged at 1800 rpm for 10 minutes, the radioactivity of the product was determined by scintillation counting on Topcount (Perkin-Elmer). IC50 determination was performed by fitting the curve of percent control activity versus the log of the inhibitor concentration using the GraphPad Prism 3.0 software.

PI3Kδ (p110δ/p85α), sequence (O00329 whole entry, species assumed): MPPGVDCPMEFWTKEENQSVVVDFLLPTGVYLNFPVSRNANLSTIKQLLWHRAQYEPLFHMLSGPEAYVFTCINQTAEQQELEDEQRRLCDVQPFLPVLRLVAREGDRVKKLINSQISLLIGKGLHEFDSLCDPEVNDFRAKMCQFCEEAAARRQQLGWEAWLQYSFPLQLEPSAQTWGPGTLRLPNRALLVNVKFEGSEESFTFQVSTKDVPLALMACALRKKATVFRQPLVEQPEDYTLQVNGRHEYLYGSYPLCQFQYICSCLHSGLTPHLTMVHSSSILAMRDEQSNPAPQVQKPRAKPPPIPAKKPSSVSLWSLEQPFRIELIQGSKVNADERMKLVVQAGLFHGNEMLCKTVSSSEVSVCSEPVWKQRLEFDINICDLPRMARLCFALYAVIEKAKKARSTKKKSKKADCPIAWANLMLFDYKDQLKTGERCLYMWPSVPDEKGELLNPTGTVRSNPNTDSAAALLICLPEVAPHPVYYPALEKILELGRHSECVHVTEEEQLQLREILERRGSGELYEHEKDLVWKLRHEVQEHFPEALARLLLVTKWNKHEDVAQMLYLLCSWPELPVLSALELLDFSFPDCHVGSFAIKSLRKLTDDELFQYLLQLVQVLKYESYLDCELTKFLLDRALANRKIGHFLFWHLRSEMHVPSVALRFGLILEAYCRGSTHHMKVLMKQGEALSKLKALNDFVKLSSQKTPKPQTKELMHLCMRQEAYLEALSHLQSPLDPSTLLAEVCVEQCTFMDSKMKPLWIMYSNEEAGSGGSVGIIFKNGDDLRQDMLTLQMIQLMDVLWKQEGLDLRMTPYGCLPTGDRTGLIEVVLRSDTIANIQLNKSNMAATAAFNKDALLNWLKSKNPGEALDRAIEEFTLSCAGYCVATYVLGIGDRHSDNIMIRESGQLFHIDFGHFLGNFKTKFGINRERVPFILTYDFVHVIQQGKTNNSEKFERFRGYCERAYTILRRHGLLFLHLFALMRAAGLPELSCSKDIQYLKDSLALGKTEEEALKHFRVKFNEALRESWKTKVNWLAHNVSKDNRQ
PI3Kδ (p110δ/p85α), sequence (P27986 whole entry partner, species assumed): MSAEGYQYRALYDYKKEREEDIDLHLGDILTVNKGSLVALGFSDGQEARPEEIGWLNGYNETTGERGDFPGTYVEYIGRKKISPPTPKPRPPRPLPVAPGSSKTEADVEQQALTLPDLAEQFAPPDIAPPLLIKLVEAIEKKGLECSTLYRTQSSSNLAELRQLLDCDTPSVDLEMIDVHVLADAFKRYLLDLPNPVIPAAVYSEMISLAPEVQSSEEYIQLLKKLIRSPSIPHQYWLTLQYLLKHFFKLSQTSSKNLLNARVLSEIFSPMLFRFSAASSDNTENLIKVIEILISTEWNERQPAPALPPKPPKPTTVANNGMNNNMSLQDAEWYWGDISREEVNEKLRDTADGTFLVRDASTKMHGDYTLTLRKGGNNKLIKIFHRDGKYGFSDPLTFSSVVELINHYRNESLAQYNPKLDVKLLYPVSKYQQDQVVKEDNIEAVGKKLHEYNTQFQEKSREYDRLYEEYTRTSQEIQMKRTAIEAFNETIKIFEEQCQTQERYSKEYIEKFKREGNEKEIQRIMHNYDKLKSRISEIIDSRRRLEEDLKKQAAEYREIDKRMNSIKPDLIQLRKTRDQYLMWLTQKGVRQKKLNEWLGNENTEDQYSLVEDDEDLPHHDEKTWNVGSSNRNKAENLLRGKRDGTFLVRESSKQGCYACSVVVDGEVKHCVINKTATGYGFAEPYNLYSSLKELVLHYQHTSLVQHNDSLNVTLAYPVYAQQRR

Row | pIC50 | Compound
1 | > 7.30 | Cc1cccc(-c2c(C(C)Nc3nc(N)nc4[nH]cnc34)nc3cccc(C)n3c2=O)c1 (centres unmarked) [Example 52, 2-{1-[(2-Amino-9H-purin-6-yl)amino]ethyl}-6-methyl-3-(3-methylphenyl)-4H-pyrido[1,2-a]pyrimidin-4-one trifluoroacetic acid salt]
2 | 7.00 to 7.30 | Cc1cccc2nc(C(C)Nc3nc(N)nc4[nH]cnc34)c(-c3cccc(C#N)c3)c(=O)n12 (centres unmarked) [Example 84, 3-(2-{1-[(2-Amino-9H-purin-6-yl)amino]ethyl}-6-methyl-4-oxo-4H-pyrido[1,2-a]pyrimidin-3-yl)benzonitrile trifluoroacetic acid salt]
3 | < 6.30 | CC(Nc1ncnc2[nH]cnc12)c1nc2ccccn2c(=O)c1-c1cc(F)cc(F)c1 (centres unmarked) [Example 79, 3-(3,5-Difluorophenyl)-2-[1-(9H-purin-6-ylamino)ethyl]-4H-pyrido[1,2-a]pyrimidin-4-one trifluoroacetic acid salt]
4 | > 7.30 | Cc1csc2nc(C(C)Nc3nc(N)nc4[nH]cnc34)c(-c3ccccc3F)c(=O)n12 (centres unmarked) [Example 33, 7-{1-[(2-amino-9H-purin-6-yl)amino]ethyl}-6-(2-fluorophenyl)-3-methyl-5H-[1,3]thiazolo[3,2-a]pyrimidin-5-one trifluoroacetic acid salt]
5 | 6.30 to 7.00 | Cc1cccc2nc(C(C)Nc3ncnc4[nH]cnc34)c(-c3cccc(C#N)c3)c(=O)n12 (centres unmarked) [Example 83, 3-{6-Methyl-4-oxo-2-[1-(9H-purin-6-ylamino)ethyl]-4H-pyrido[1,2-a]pyrimidin-3-yl}benzonitrile trifluoroacetic acid salt]
6 | < 6.30 | CC(Nc1ncnc2[nH]cnc12)c1nc2sccn2c(=O)c1-c1ccccc1 (centres unmarked) [Example 29, 6-phenyl-7-[1-(9H-purin-6-ylamino)ethyl]-5H-[1,3]thiazolo[3,2-a]pyrimidin-5-one]
7 | 7.00 to 7.30 | Cc1csc2nc(C(C)Nc3ncnc4[nH]cnc34)c(-c3ccc(F)cc3)c(=O)n12 (centres unmarked) [Example 22, 6-(4-fluorophenyl)-3-methyl-7-[1-(9H-purin-6-ylamino)ethyl]-5H-[1,3]thiazolo[3,2-a]pyrimidin-5-one trifluoroacetic acid salt]
8 | > 7.30 | CCc1cccc2nc(C(C)Nc3ncnc4[nH]cnc34)c(-c3ccc(F)cc3)c(=O)n12 (centres unmarked) [Example 78, 6-Ethyl-3-(4-fluorophenyl)-2-[1-(9H-purin-6-ylamino)ethyl]-4H-pyrido[1,2-a]pyrimidin-4-one trifluoroacetic acid salt]
9 | 6.30 to 7.00 | Cc1cccc(-c2c(C(C)Nc3ncnc4[nH]cnc34)nc3cccc(C)n3c2=O)c1 (centres unmarked) [Example 51, 6-Methyl-3-(3-methylphenyl)-2-[1-(9H-purin-6-ylamino)ethyl]-4H-pyrido[1,2-a]pyrimidin-4-one trifluoroacetic acid salt]
10 | < 6.30 | Cc1cc(-c2c(C(C)Nc3nc(N)nc4[nH]cnc34)nc3cccc(C)n3c2=O)cnc1Cl (centres unmarked) [Example 82, 2-{1-[(2-Amino-9H-purin-6-yl)amino]ethyl}-3-(6-chloro-5-methylpyridin-3-yl)-6-methyl-4H-pyrido[1,2-a]pyrimidin-4-one trifluoroacetic acid salt]
11 | > 7.30 | Cc1cccc2nc(C(C)Nc3nc(N)nc4[nH]cnc34)c(-c3ccccc3F)c(=O)n12 (centres unmarked) [Example 60, 2-{1-[(2-Amino-9#-purin-6-yl)amino]ethyl}-3-(2-fluorophenyl)-6-methyl-4H-pyrido[1,2-a]pyrimidin-4-one trifluoroacetic acid salt]
12 | > 7.30 | Cc1cccc2nc(C(C)Nc3nc(N)nc4[nH]cnc34)c(-c3ccccc3)c(=O)n12 (centres unmarked) [Example 50, 2-{1-[(2-Amino-9H-purin-6-yl)amino]ethyl}-6-methyl-3-phenyl-4H-pyrido[1,2-a]pyrimidin-4-one trifluoroacetic acid salt]
13 | 6.30 to 7.00 | Cc1csc2nc(C(C)Nc3ncnc4[nH]ccc34)c(-c3cc(F)cc(F)c3)c(=O)n12 (centres unmarked) [Example 17, 6-(3,5-difluorophenyl)-3-methyl-7-[1-(7H-pyrrolo[2,3-d]pyrimidin-4-ylamino)ethyl]-5H-[1,3]thiazolo[3,2-a]pyrimidin-5-one]
14 | 6.30 to 7.00 | Cc1ccc(-c2c(C(C)Nc3ncnc4[nH]cnc34)nc3scc(C)n3c2=O)cc1 (centres unmarked) [Example 31, 3-methyl-6-(4-methylphenyl)-7-[1-(9H-purin-6-ylamino)ethyl]-5H-[1,3]thiazolo[3,2-a]pyrimidin-5-one trifluoroacetic acid salt]
15 | 6.30 to 7.00 | Cc1csc2nc(C(C)Nc3ncnc4[nH]cnc34)c(-c3cc(F)cc(Cl)c3)c(=O)n12 (centres unmarked) [Example 37, 6-(3-chloro-5-fluorophenyl)-3-methyl-7-[1-(9H-purin-6-ylamino)ethyl]-5H-[1,3]thiazolo[3,2-a]pyrimidin-5-one trifluoroacetic acid salt]
16 | > 7.30 | Cc1csc2nc(C(C)Nc3ncnc4[nH]cnc34)c(-c3nccs3)c(=O)n12 (centres unmarked) [Example 20, 3-methyl-7-[1-(9H-purin-6-ylamino)ethyl]-6-(1,3-thiazol-2-yl)-5H-[1,3]thiazolo[3,2-a]pyrimidin-5-one trifluoroacetic acid salt]
17 | 7.00 to 7.30 | CCc1cccc2nc(C(C)Nc3nc(N)nc4[nH]cnc34)c(-c3cc(F)cc(F)c3)c(=O)n12 (centres unmarked) [Example 77, 2-{1-[(2-Amino-9#-purin-6-yl)amino]ethyl}-3-(3,5-difluorophenyl)-6-ethyl-4H-pyrido[1,2-a]pyrimidin-4-one trifluoroacetic acid salt]
18 | > 7.30 | Cc1cccc2nc(C(C)Nc3nc(N)nc4[nH]cnc34)c(-c3ccccc3Cl)c(=O)n12 (centres unmarked) [Example 58, 2-{1-[(2-Amino-9#-purin-6-yl)amino]ethyl}-3-(2-chlorophenyl)-6-methyl-4H-pyrido[1,2-a]pyrimidin-4-one trifluoroacetic acid salt]
19 | > 7.30 | Cc1csc2nc(C(C)Nc3nc(N)nc4[nH]cnc34)c(-c3cccc(F)c3F)c(=O)n12 (centres unmarked) [Example 34, 7-{1-[(2-amino-9H-purin-6-yl)amino]ethyl}-6-(2,3-difluorophenyl)-3-methyl-5H-[1,3]thiazolo[3,2-a]pyrimidin-5-one trifluoroacetic acid salt]
20 | 6.30 to 7.00 | Cc1cccc2nc(C(C)Nc3nc(N)nc4[nH]cnc34)c(-c3ccc(C#N)cc3)c(=O)n12 (centres unmarked) [Example 62, 4-(2-{1-[(2-Amino-9H-purin-6-yl)amino]ethyl}-6-methyl-4-oxo-4H-pyrido[1,2-a]pyrimidin-3-yl)benzonitrile trifluoroacetic acid salt]
21 | > 7.30 | Cc1csc2nc(C(C)Nc3ncnc4[nH]cnc34)c(-c3cc(F)ccc3F)c(=O)n12 (centres unmarked) [Example 45, 6-(2,5-difluorophenyl)-3-methyl-7-[1-(9H-purin-6-ylamino)ethyl]-5H-[1,3]thiazolo[3,2-a]pyrimidin-5-one trifluoroacetic acid salt]
22 | > 7.30 | COc1cccc(-c2c(C(C)Nc3ncnc4[nH]cnc34)nc3cccc(C)n3c2=O)c1 (centres unmarked) [Example 65, 3-(3-Methoxyphenyl)-6-methyl-2-[1-(9H-purin-6-ylamino)ethyl]-4H-pyrido[1,2-a]pyrimidin-4-one trifluoroacetic acid salt]
23 | > 7.30 | Cc1cccc2nc(C(C)Nc3ncnc4[nH]cnc34)c(-c3ccccc3)c(=O)n12 (centres unmarked) [Example 49, 6-Methyl-3-phenyl-2-[1-(9H-purin-6-ylamino)ethyl]-4H-pyrido[1,2-a]pyrimidin-4-one trifluoroacetic acid salt]
